Measurements reported in patent US20080139617A1 (priority 2006, published 2008).

The compounds below were run against T1, human V1a receptor (Homo sapiens, UniProt P37288) (assay: human V1a receptor binding (3H-Vasopressin SPA, membranes of transfected HEK293 cells)). Conditions: displacement of 3H-Vasopressin; Ki calculated from IC50 using the Cheng-Prussoff equation.
T1 construct: expressed in transfected cells; host or cells: HEK293 cells, transiently transfected; membrane preparation
T1 sequence (P37288 whole entry): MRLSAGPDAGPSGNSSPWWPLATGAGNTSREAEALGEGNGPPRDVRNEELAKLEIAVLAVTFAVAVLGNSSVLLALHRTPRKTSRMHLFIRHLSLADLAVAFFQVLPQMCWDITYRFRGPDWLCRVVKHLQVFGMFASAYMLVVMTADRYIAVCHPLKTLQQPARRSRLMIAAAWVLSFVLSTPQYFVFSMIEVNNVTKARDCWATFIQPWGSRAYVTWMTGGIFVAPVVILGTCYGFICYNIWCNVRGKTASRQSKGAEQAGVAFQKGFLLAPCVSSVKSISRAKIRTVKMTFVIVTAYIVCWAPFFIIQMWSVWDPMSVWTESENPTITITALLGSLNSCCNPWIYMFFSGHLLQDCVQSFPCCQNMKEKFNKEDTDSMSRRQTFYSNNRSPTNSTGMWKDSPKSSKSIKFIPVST
Protocol: The human V1a receptor was cloned by RT-PCR from total human liver RNA. The coding sequence was subcloned in an expression vector after sequencing to confirm the identity of the amplified sequence. […] Cell membranes were prepared from HEK293 cells transiently transfected with the expression vector and grown in 20 liter fermenters with the following protocol.
50 g of cells were resuspended in 30 ml freshly prepared ice cold Lysis buffer (50 mM HEPES, 1 mM EDTA, 10 mM MgCl2 adjusted to pH=7.4+complete cocktail of protease inhibitor (Roche Diagnostics)), homogenized with Polytron for 1 min, and sonicated on ice for 2×2 minutes at 80% intensity (Vibracell sonicator). The preparation was centrifuged 20 min at 500 g at 4° C., the pellet was discarded, and the supernatant centrifuged 1 hour at 43'000 g at 4° C. (19'000 rpm). The pellet was resuspended in 12.5 ml Lysis buffer+12.5 ml Sucrose 20% and homogenized using a Polytron for 1-2 min. The protein concentration was determined by the Bradford method and aliquots were stored at −80° C. until use. For binding studies, 60 mg Yttrium silicate SPA beads (Amersham) were mixed with an aliquot of membrane in binding buffer (50 mM Tris, 120 mM NaCl, 5 mM KCl, 2 mM CaCl2, 10 mM MgCl2) for 15 minutes with mixing. 50 ul of bead/membrane mixture was then added to each well of a 96 well plate, followed by 50 ul of 4 nM 3H-Vasopressin (American Radiolabeled Chemicals). For total binding measurement 100 ul of binding buffer were added to the respective wells, for non-specific binding 100 ul of 8.4 mM cold vasopressin were added, and for compound testing 100 ul of a serial dilution of each compound in 2% DMSO were added. The plate was incubated Ih at room temperature, centrifuged 1 min at 1000 g and counted on a Packard Top-Count. Non-specific binding counts were subtracted from each well and data was normalized to the maximum specific binding set at 100%. To calculate an IC 50, the curve was fitted using a non-linear regression model (XLfit) and the Ki was calculated using the Cheng-Prussoff equation.
Compound N#CCn1c(C(=O)N2CCC(n3c(=O)[nH]c4ccccc43)CC2)cc2cc(Br)ccc21 [Example 3, {5-Bromo-2-[4-(2-oxo-2,3-dihydro-benzoimidazol-1-yl)-piperidine-1-carbonyl]-indol-1-yl}-acetonitrile] has a Ki of 12 nM. COc1ccc2[nH]c(C(=O)N3CCC(n4c(=O)[nH]c5ccccc54)CC3)c(NC(=O)c3ccccc3[N+](=O)[O-])c2c1 [Example 10, N-{5-Methoxy-2-[4-(2-oxo-2,3-dihydro-benzoimidazol-1-yl)-piperidine-1-carbonyl]-1H-indol-3-yl}-2-nitro-benzamide] gave a Ki of 20 nM. Cc1ccc2[nH]c(C(=O)N3CCC(n4c(=O)[nH]c5ccccc54)CC3)c(NC(=O)c3ccc(F)cc3)c2c1 [Example 11] was tested, and the Ki was 39.8 nM. CCOC(=O)Cc1c(C(=O)N2CCC(n3c(=O)[nH]c4ccccc43)CC2)[nH]c2ccccc12 [Example 14, {2-[4-(2-Oxo-2,3-dihydro-benzoimidazol-1-yl)-piperidine-1-carbonyl]-1H-indol-3-yl}-acetic acid ethyl ester] showed a Ki of 41.7 nM. For O=C(c1cc2cccc(OCc3ccccc3)c2[nH]1)N1CCC(n2c(=O)[nH]c3ccccc32)CC1 [Example 37, 1-[1-(7-Benzyloxy-1H-indole-2-carbonyl)-piperidin-4-yl]-1,3-dihydro-benzoimidazol-2-one], the Ki was 21.9 nM. N#CCn1c(C(=O)N2CCC(n3c(=O)[nH]c4ccccc43)CC2)cc2cc(Cl)ccc21 [Example 45, {5-Chloro-2-[4-(2-oxo-2,3-dihydro-benzoimidazol-1-yl)-piperidine-1-carbonyl]-indol-1-yl}-acetonitrile] was tested, and the Ki was 32 nM. N#CCc1cc(Cl)cc2cc(C(=O)N3CCC(n4c(=O)[nH]c5ccccc54)CC3)[nH]c12 [Example 46, {5-Chloro-2-[4-(2-oxo-2,3-dihydro-benzoimidazol-1-yl)-piperidine-1-carbonyl]-1H-indol-7-yl}-acetonitrile] gave a Ki of 35.5 nM. Work on O=C(c1cc2cc(Cl)ccc2[nH]1)N1CCC(N2C(=O)Cc3ccccc32)CC1 [Example 47, 1-[1-(5-Chloro-1H-indole-2-carbonyl)-piperidin-4-yl]-1,3-dihydro-indol-2-one] yielded a Ki of 64.6 nM. Compound O=C(c1cc2cc(Cl)ccc2[nH]1)N1CCC(n2nnc3ccccc32)CC1 [Example 48, (4-Benzotriazol-1-yl-piperidin-1-yl)-(5-chloro-1H-indol-2-yl)-methanone] has a Ki of 385 nM.
